The target of assay [1] is T1, Plasminogen (Homo sapiens, UniProt P00747).
In assay [2] the target is T2, Coagulation factor X (Homo sapiens, UniProt P00742).
Assay [3] deals with T3, Coagulation factor VII (Homo sapiens, UniProt P08709).
T3 sequence (P08709 whole entry): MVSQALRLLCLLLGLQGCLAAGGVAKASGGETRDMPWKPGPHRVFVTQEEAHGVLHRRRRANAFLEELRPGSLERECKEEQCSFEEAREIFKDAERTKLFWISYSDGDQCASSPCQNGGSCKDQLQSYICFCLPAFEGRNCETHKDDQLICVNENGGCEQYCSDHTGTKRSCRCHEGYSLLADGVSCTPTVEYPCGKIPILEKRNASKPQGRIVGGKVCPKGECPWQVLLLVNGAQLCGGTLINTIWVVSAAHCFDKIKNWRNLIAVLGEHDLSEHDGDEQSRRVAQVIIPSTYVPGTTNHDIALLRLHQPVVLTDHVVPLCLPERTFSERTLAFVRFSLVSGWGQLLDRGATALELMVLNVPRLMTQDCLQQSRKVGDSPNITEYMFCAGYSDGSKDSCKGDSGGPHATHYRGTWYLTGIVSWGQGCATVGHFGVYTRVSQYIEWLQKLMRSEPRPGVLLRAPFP
In words: Compound was evaluated for its 50 percent inhibitory concentration against human Coagulation factor VII.

The target of assay [4] is Serine protease 1 (Homo sapiens, UniProt P07477). In words: Compound was evaluated for its 50% inhibitory concentration against human protease enzyme trypsin.
The target in assay [5] is T4, Prothrombin (Homo sapiens, UniProt P00734). In words: Compound was evaluated for its 50 percent inhibitory concentration against human thrombin factor (FIIa).
The target of assay [6] is T5, Serine protease 1 (Bos taurus, UniProt P00760).
T5 sequence (P00760 whole entry): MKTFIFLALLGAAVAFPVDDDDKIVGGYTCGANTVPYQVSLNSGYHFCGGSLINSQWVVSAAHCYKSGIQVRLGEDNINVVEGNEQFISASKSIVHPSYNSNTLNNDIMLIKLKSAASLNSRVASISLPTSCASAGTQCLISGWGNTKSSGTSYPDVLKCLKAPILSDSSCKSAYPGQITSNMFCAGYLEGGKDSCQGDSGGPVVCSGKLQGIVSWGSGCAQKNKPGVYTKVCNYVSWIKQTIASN
In words: Compound was evaluated for its 50% inhibitory concentration against cow protease enzyme trypsin.

Assay [7] deals with T1, Plasminogen. In words: Compound was evaluated for its 50% inhibitory concentration against human protease enzyme plasmin.
For assay [8], the target named is T2, Coagulation factor X. In words: Compound was evaluated for its 50% inhibitory concentration against Coagulation factor X.
For assay [9], the target named is T3, Coagulation factor VII. In words: Compound was evaluated for its 50 percent inhibitory concentration against human Coagulation factor VII: Inactive.
Assay [10] concerns the target T4, Prothrombin.
Assay [11] deals with T1, Plasminogen. In words: Compound was evaluated for its 50% inhibitory concentration against human protease enzyme plasmin; Inactive.
In assay [12] the target is T3, Coagulation factor VII. In words: Compound was evaluated for its 50 percent inhibitory concentration against human Coagulation factor VII; inactive.

Sequence of Serine protease 1 (Homo sapiens, UniProt P07477) (P07477 whole entry): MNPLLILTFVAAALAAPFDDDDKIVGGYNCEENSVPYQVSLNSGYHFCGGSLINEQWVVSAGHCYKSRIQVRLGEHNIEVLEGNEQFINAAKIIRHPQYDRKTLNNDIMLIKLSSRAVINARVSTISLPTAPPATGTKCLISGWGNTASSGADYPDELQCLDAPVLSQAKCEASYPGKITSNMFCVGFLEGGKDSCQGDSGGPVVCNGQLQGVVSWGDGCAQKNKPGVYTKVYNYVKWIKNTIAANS
T2 sequence (P00742 41-179 limits assumed): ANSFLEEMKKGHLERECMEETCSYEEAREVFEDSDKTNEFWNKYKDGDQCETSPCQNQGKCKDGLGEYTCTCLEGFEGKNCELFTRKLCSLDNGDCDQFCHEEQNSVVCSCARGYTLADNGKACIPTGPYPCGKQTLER
T2 sequence (P00742 235-488 limits assumed): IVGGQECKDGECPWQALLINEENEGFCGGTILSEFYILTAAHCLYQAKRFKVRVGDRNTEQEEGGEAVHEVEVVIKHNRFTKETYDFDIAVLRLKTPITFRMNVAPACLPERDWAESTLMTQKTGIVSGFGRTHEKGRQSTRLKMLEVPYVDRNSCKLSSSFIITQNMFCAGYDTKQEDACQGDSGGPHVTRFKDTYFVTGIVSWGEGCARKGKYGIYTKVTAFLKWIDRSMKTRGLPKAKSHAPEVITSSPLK
T1 sequence (P00747 97-580 limits assumed): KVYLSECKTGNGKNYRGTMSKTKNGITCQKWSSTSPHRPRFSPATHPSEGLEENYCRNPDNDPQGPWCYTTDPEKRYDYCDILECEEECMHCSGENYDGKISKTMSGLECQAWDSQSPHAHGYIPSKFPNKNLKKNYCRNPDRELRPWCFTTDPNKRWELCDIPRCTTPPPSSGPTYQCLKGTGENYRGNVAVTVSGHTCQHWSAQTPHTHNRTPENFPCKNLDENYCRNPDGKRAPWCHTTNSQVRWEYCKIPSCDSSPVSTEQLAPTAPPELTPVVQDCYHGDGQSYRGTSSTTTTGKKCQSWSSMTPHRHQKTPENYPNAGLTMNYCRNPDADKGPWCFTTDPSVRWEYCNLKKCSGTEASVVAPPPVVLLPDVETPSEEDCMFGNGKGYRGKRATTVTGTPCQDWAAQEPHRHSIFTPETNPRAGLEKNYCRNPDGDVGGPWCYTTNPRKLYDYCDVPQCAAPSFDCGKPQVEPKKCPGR
T1 sequence (P00747 581-810 limits assumed): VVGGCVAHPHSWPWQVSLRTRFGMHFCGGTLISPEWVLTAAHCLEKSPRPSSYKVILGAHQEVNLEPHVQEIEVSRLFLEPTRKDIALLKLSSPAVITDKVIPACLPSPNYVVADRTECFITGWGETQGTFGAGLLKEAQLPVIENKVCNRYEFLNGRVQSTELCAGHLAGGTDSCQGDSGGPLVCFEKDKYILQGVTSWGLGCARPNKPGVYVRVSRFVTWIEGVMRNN

On to `CC(=O)NN(CCCc1ccccc1)C(=O)[C@@H]1CCCC[C@H]1C(=O)N[C@H](C=O)CCCN=C(N)N`, for which the IC50 result is “Not Active” in assay [1]; “Not Active” in assay [2]; more than 25000 nM in [3]; 5700 nM in [4]; 12800 nM in assay [5].
As to `CC(C)(C)OC(=O)N[C@@H](CC(=O)O)C(=O)N1CCCC1C(=O)N[C@@H](CCCN=C(N)N)C(=O)C(=O)NCCc1ccccc1` (some centres undefined), the IC50 in assay [3] is 706 nM; in assay [6], 0.76 nM; in assay [7], 2710 nM; in assay [5] it was 2.3 nM; in assay [8], 698 nM.
As to `CC(C)(C)OC(=O)NN(Cc1ccccc1)C(=O)[C@@H]1CCCC[C@H]1C(=O)N[C@@H](CCCN=C(N)N)C(=O)C(=O)NCCc1ccccc1`, the IC50 result in [1] was “Not Active”; in assay [2] it was “Not Active”; in assay [4] it was 250 nM; in assay [9], “Not Active”; in assay [5], 880 nM.
With `CC(=O)N[C@H](Cc1ccccc1)C(=O)N1CCC[C@H]1C(=O)N[C@H]1CCCN(C(=N)N)C1O` (some centres undefined), the IC50 in [3] is 4300 nM; in assay [6], 156 nM; in [7], more than 2500 nM; in assay [8], more than 2500 nM.
`CCOC(=O)CN(NC(=O)OC(C)(C)C)C(=O)[C@@H]1CCCC[C@H]1C(=O)N[C@H](C=O)CCCN=C(N)N`: the IC50 entry was “Not Active” in assay [1]; “Not Active” in assay [2]; 22000 nM in [3]; 250 nM in assay [6]; more than 2500 nM in [5].
Take `CCOC(=O)CN(NC(=O)OC(C)(C)C)C(=O)[C@@H]1CCCC[C@H]1C(=O)N[C@@H](CCCN=C(N)N)C(=O)C(=O)NCCc1ccccc1`: the half-maximal inhibitory concentration (IC50) entry in assay [1] is “Not Active”; in assay [2], “Not Active”; in assay [3] it was 25000 nM; in assay [6] it was 250 nM; in [5] it was more than 2500 nM.
Turning to `COC(=O)CN(NC(=O)OC(C)(C)C)C(=O)[C@@H]1CCCC[C@H]1C(=O)N[C@@H](CCCN=C(N)N)C(=O)C(=O)NCCc1ccccc1`, the IC50 entry in [1] was “Not Active”; in assay [2], “Not Active”; in [3], 18000 nM; in assay [6], 1310 nM; in assay [10], “Not Active”.
In the case of `CCOC(=O)CN(NC(C)=O)C(=O)[C@@H]1CCCC[C@H]1C(=O)N[C@H](C=O)CCCN=C(N)N`, the IC50 result is “Not Active” in assay [1]; “Not Active” in [2]; more than 25000 nM in assay [3]; 590 nM in [6]; 22100 nM in assay [5].
`CCCC(CCC)C(=O)NN(CC(=O)OCC)C(=O)[C@@H]1CCCC[C@H]1C(=O)N[C@@H](CCCN=C(N)N)C(=O)C(=O)NCCc1ccccc1`: the IC50 entry is “Not Active” in assay [2]; “Not Active” in assay [11]; 22200 nM in assay [4]; “Not Active” in assay [12]; 13200 nM in assay [5].
As for `CC(=O)NN(Cc1ccccc1)C(=O)[C@@H]1CCCC[C@H]1C(=O)N[C@@H](CCCN=C(N)N)C(=O)C(=O)NCCc1ccccc1`, the IC50 result was “Not Active” in [2]; 8500 nM in [3]; 108 nM in assay [6]; more than 2500 nM in assay [7]; 3200 nM in [5].
Turning to `CC(C)(C)OC(=O)NN(Cc1ccccc1)C(=O)[C@@H]1CCCC[C@H]1C(=O)N[C@H](C=O)CCCN=C(N)N`, the concentration for half-maximal inhibition (IC50) result is “Not Active” in assay [1]; “Not Active” in assay [2]; more than 25000 nM in assay [3]; more than 2500 nM in assay [6]; more than 2500 nM in assay [5].
Consider `CC(=O)NN(Cc1ccccc1)C(=O)[C@@H]1CCCC[C@H]1C(=O)N[C@H](C=O)CCCN=C(N)N`, for which the IC50 entry in [1] is “Not Active”; in [2] it was “Not Active”; in assay [3] it was more than 25000 nM; in assay [6], more than 2500 nM; in assay [10] it was “Not Active”.

Values taken from ChEMBL document CHEMBL1129829, “Synthesis and biological activity of P2P4 azapeptidomimetic P1-argininal and P1-ketoargininamide derivatives: a novel class of serine protease inhibitors” (Bioorg Med Chem Lett, 1997).
